# In patent US20120323016A1, “METHOD OF PREPARING DERIVATIVES/OLIGOMERS OF EPICATECHIN AND APPLICATIONS THEREOF” (NATIONAL UNIVERSITY OF SINGAPORE, priority 2009, published 2012):
# Experiment: Oxygen radical absorbance capacity (ORAC) assay
# Method: Peroxyl radical scavenging capacity of the EC2S2 was determined using oxygen radical absorbance capacity (ORAC) assay (Huang, D.; Ou, B.; Hampsch-Woodill, M.; Flanagan, J. A.; Prior, R. L. High-throughput assay of oxygen radical absorbance capacity (ORAC) using a multichannel liquid handling system coupled with a microplate fluorescence reader in 96-well format. Journal of Agricultural and Food Chemistry (2002), 50(16), 4437-4444.). […] The net area under the curve has excellent linear relationship with the concentration of EC2S2. The ORAC value calculated from the individual concentration is 10.79±0.58 μmol TE/μmol sample. This is the highest ORAC value reported for pure antioxidant compounds.
smiles,measurement,setting,value
"Oc1cc(O)c2c(c1)O[C@H](c1ccc(O)c(O)c1)[C@H](O)[C@H]2SCCS[C@H]1c2c(O)cc(O)cc2O[C@H](c2ccc(O)c(O)c2)[C@@H]1O [EC2S2, (2R,2′R,3S,3′S,4S,4′S)-4,4′-(ethane-1,2-diylbis(sulfanediyl))bis(2-(3,4-dihydroxyphenyl)chroman-3,5,7-triol)]",antioxidant activity relative to EC,"EC2S2 synthesized from Pine Bark OPCs, compared with EC",two times higher than EC
same,ORAC value (peroxyl radical scavenging capacity),"calculated from the individual concentration, Trolox standard",10.79±0.58 μmol TE/μmol sample
